From patent US6759547B1, “5,6,7,8-tetrahydronaphthalen-2-yl 2,6-difluoroheptatrienoic acid derivatives having serum glucose reducing activity” (Allergan, Inc., priority 2003, dated 2004) come the findings set out here.

The target in assay [1] is T1, RXRα (Homo sapiens, UniProt P19793).
T1 construct: expressed in transfected cells
T1 sequence (P19793 1-462): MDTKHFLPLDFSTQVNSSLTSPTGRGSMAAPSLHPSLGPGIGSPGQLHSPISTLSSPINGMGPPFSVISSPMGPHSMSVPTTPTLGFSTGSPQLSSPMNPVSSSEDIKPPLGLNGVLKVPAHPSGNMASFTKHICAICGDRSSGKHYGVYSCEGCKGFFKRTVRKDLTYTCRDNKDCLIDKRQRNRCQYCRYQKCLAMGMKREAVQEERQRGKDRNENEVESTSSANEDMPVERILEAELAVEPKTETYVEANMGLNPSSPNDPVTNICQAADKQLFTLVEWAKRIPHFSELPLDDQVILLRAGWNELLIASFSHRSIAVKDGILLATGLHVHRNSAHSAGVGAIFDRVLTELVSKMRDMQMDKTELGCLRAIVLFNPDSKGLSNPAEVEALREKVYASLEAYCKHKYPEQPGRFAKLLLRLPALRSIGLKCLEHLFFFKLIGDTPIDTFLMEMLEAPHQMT
In words: holoreceptor transactivation assay, RXRα. To be noted: for RXR Trans. efficacy α: efficacy as a percentage compared to the standard compound; for EC50: holoreceptor assay, read-out: RXR Trans. EC50 α. The format is cell-based. An excerpt: (§1) Particularly, the transactivation data pertaining to activation of the RAR receptors were obtained in the chimeric assay, and the transactivation data pertaining to the activation of RXR receptors were obtained in the holoreceptor assay.

Assay [2] concerns the target T2, RXRβ (Homo sapiens, UniProt P28702).
T2 construct: expressed in transfected cells
T2 sequence (P28702 1-533): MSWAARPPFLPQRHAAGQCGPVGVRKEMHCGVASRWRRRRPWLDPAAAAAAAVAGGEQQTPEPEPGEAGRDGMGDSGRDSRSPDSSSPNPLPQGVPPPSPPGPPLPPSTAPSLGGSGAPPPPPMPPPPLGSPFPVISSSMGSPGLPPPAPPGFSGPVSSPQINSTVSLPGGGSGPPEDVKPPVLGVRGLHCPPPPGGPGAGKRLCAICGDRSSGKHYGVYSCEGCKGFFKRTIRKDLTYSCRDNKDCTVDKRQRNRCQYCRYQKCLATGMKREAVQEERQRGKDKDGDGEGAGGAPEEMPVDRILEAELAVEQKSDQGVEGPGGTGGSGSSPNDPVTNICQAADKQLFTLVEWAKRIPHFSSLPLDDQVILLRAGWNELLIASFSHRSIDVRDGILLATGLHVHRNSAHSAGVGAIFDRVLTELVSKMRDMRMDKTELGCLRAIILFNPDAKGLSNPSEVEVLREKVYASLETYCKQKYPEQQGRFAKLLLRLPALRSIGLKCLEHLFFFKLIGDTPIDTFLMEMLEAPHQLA
Kind of assay: holoreceptor transactivation assay, RXRβ. The settings on record: for RXR Trans. efficacy β: efficacy as a percentage compared to the standard compound; for EC50: holoreceptor assay, read-out: RXR Trans. EC50 β; for efficacy in activating RXRβ compared with RXRα and RXRγ: transactivation, comparison of subtypes. The class given is cell-based.
Text: as §1

Assay [3] addresses T3, RARβ (Homo sapiens, UniProt P10826).
T3 sequence (P10826 1-455): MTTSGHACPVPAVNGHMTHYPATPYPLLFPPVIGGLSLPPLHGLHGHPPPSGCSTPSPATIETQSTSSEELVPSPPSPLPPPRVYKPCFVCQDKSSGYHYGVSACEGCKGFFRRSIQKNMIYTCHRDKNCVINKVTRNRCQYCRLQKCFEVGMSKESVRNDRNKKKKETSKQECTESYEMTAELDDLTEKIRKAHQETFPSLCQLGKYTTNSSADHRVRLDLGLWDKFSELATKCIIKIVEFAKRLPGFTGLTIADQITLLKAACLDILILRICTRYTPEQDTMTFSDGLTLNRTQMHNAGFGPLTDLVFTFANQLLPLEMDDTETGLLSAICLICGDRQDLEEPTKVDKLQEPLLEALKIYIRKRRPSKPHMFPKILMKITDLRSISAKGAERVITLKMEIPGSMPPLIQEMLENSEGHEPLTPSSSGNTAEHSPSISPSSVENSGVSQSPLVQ
In words: ligand binding assay, RARβ. The settings on record: read-out: RAR Bind. K1 β.
Text: (§2) The results obtained in this assay are expressed in EC50 numbers, as they are also in the chimeric receptor transactivation assay. The results of the ligand binding assay are expressed in Ki numbers.

In assay [4] the target is T1, RXRα. Kind of assay: ligand binding assay, RXRα. To be noted: read-out: RXR Bind K1 α.
Text: as §2
For assay [5], the target named is T2, RXRβ. Kind of assay: ligand binding assay, RXRβ. The settings on record: read-out: RXR Bind K1 β.
Text: The results of the ligand binding assay are expressed in Ki numbers.
For another assay, the target named is T4, RARα (Homo sapiens, UniProt P10276).
T4 sequence (P10276 1-462): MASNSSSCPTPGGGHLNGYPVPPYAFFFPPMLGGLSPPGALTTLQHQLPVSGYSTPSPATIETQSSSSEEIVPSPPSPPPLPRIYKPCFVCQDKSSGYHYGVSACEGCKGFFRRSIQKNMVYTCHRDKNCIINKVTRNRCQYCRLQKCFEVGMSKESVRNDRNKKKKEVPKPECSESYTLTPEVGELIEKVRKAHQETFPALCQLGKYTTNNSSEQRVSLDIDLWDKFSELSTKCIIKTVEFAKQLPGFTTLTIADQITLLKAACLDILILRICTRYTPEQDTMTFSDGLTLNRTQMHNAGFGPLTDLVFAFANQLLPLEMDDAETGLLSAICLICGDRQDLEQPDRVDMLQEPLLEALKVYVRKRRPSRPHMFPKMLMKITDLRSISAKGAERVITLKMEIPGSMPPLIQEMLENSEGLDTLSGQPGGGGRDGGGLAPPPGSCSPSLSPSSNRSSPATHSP
Kind of assay: ligand binding assay, RARα. The settings on record: read-out: RAR Bind. K1 α.

The target of assay [6] is T5, RARβ (Homo sapiens, UniProt P10826).
T5 sequence (P10826 183-417 limits assumed): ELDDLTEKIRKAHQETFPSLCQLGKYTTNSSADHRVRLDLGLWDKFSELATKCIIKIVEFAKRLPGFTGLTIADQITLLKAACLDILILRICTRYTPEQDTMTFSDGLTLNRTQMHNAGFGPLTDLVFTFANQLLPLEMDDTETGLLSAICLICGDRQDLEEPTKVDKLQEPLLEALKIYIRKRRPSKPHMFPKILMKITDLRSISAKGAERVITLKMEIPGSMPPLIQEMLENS
Kind of assay: chimeric receptor transactivation assay, RARβ. The format is cell-based. The settings on record: for EC50: chimeric assay, read-out: RAR Trans. EC50 β; for RAR Trans. efficacy β: efficacy as a percentage compared to the standard compound. From the text:
One such assay is a chimeric receptor transactivation assay which tests for agonist-like activity in the RARα RARβ and RARγ receptor subtypes, and which is based on work published by Feigner P. L. and Holm M. (1989) Focus, 112 is described in detail in U.S. Pat. No. 5,455,265. The specification of U.S. Pat. No. 5,455,265 is hereby expressly incorporated by reference.
Table 1 discloses the activity of certain exemplary compounds of the invention in the above-described receptor transactivation and binding assays. Particularly, the transactivation data pertaining to activation of the RAR receptors were obtained in the chimeric assay, and the transactivation data pertaining to the activation of RXR receptors were obtained in the holoreceptor assay.

Each structure is given as a SMILES string. Some results are limits rather than exact numbers.

Text for RARα: as §2

Broadly, the EC50 is the concentration at which the effect is half-maximal. For the molecule `CCOc1cc2c(cc1\C(CC)=C(F)/C=C/C(C)=C(\F)C(=O)O)C(C)(C)CCC2(C)C` [Compound 27, (2Z,4E,6E)-7-(3-Ethoxy-5,5,8,8-tetramethyl-5,6,7,8-tetrahydro-naphthalen-2-yl)-2,6-difluoro-3-methyl-nona-2,4,6-trienoic acid], at RXRα [1], the “RXR Trans. efficacy α” value is reported as 30%. In addition, the concentration giving a half-maximal response (EC50) was 4 nM at RXRα [1], 32 nM at RXRβ [2] and 95 nM at RARβ [6]. In addition, the “RXR Trans. efficacy β” value at RXRβ [2] was found to be 43%. The “efficacy in activating RXRβ compared with RXRα and RXRγ” value (“efficacy … compared with RXRα and RXRγ” below) on RXRβ [2] is recorded as “significantly more effective in activating the RXRβ subtype”. For the same molecule, the Ki at RARβ [3] came to 1800 nM; at RXRα [4] it was 5 nM; on RXRβ [5], 20 nM; on RARα it was 930 nM. In addition, the “RAR Trans. efficacy β” value on RARβ [6] is given as 14%.
Regarding `CC/C(=C(F)/C=C/C(C)=C(\F)C(=O)O)c1cc2c(cc1OCOC)C(C)(C)CCC2(C)C` [Compound 21, (2Z,4E,6E)-2,6-Difluoro-7-(3-methoxymethoxy-5,5,8,8-tetramethyl-5,6,7,8-tetrahydro-naphthalen-2-yl)-3-methyl-nona-2,4,6-trienoic acid], the “RXR Trans. efficacy α” value at RXRα [1] is recorded as 41%. For the same molecule, the results for the EC50 at RXRα [1], on RXRβ [2] and on RARβ [6] were 9 nM, 91 nM and 170 nM, respectively. Besides, on RXRβ [2], the “RXR Trans. efficacy β” value amounted to 45%. Besides, the “efficacy … compared with RXRα and RXRγ” value at RXRβ [2] is recorded as “significantly more effective in activating the RXRβ subtype”. Further, the Ki at RARβ [3] is 590 nM; at RXRα [4] it was 12 nM; on RXRβ [5], 60 nM; at RARα, 260 nM. Moreover, the “RAR Trans. efficacy β” value on RARβ [6] is 24%.
As for `CCCOc1cc2c(cc1\C(C)=C(F)/C=C/C(C)=C(\F)C(=O)O)C(C)(C)CCC2(C)C` [Compound 11, (2Z,4E,6E)-2,6-Difluoro-3-methyl-7-(5,5,8,8-tetramethyl-3-propoxy-5,6,7,8-tetrahydro-naphthalen-2-yl)-octa-2,4,6-trienoic acid], the “RXR Trans. efficacy α” value at RXRα [1] worked out at 7%. The values for the EC50 on RXRα [1], on RXRβ [2] and on RARβ [6] were 3 nM, 43 nM and greater than 1000 nM, respectively. The “RXR Trans. efficacy β” value at RXRβ [2] came to 24%. Besides, at RXRβ [2], the “efficacy … compared with RXRα and RXRγ” value is reported as “significantly more effective in activating the RXRβ subtype”. Further, the Ki at RARβ [3] amounted to 1720 nM; at RXRα [4], 11 nM; on RXRβ [5], 65 nM; at RARα, 1800 nM. The “RAR Trans. efficacy β” value at RARβ [6] turned out to be 25%.
